Where two headings read alike, the source gives them in different places.

Experimental findings from PMC8000041, “New Insights into the Metabolism of the Flavanones Eriocitrin and Hesperidin: A Comparative Human Pharmacokinetic Study” (Antioxidants, 2021) are described below.

Data set [1] in a line: Urinary excretion of flavanone-derived metabolites after single intake of lemon or orange extract (UPLC-ESI-QTOF-MS). Type of data set: in vivo, human. The note with it: for Urinary excretion F1: urine fraction 0-4 h; for Urinary excretion F1 / Urinary excretion Total F / Urinary excretion F2 / Urinary excretion F3 / Urinary excretion F4: mean ± SD; for Urinary excretion Total F: sum of fractions F1-F4 (24 h); for Urinary excretion F2: urine fraction 4-8 h; for Urinary excretion F3: urine fraction 8-10 h; for Urinary excretion F4: urine fraction 10-24 h; for Occurrence Urine LE (number of volunteers in whom the metabolite was detected): after consuming lemon extract; for Occurrence Urine LE (number of volunteers in whom the metabolite was detected) / Occurrence Urine OE (number of volunteers in whom the metabolite was detected): n = 16 volunteers; for Occurrence Urine OE (number of volunteers in whom the metabolite was detected): after consuming orange extract. From the text:
Secondary endpoints involved the evaluation of post-prandial changes in several biomarkers dealing with metabolism, inflammation, and oxidative stress after a high-fat-high-sugars meal. The design was a randomized pharmacokinetic, double-blind, crossover, single-dose trial consisted of 2 test-phases. The volunteers were randomly allocated into two groups using a computerized random number list. Each group consumed one of the citrus extracts by following a test-phase that lasted for 1 day for blood sampling and urine collection, a 2-week washout period between each test phase, and crossover before consuming the other extract. The volunteers were instructed to avoid the consumption of flavanone-containing products, from a list provided by the researchers, for 1 week before the study and during the wash-out phase (citrus fruit juices, tomatoes, tomato-based sauces (like ‘ketchup’), peppers, almonds, etc.). […] The 3 capsules provided a total of 1.95 g orange extract, containing 260 mg hesperidin, and 3.1 g lemon extract, containing 260 mg eriocitrin. […] Untreated urine samples were aliquoted and frozen at −80 °C for up to 4 weeks until analyses, avoiding freeze-thaw cycles to avoid metabolites’ deconjugation. Moreover, three measurements of blood pressure and heart rate were taken before each time-point of blood withdrawal. […] A previously validated method for analyzing phenolic metabolites in biological samples, including flavanone-derived metabolites, was used. […] After centrifugation at 14,000× g for 10 min at 4 °C, the supernatant was evaporated in a speed vacuum concentrator. Finally, samples were re-suspended in 100 µL of methanol, filtered through a 0.22 µm cellulose filters before analysis by UPLC- ESI-QTOF-MS. […] A targeted screening strategy was applied to identify metabolites that could be present after consuming the citrus extracts. Twenty-eight possible compounds were browsed in all the samples. The list of compounds included the polyphenols present in the extracts, with particular focus on the flavanone rutinosides hesperidin and eriocitrin, their respective aglycones hesperetin, and eriodictyol, as well as their derived phase-II conjugates (glucuronides, sulfates, sulfoglucuronides, etc.). The exact mass of each proposed compound was extracted using an extraction window of 0.01 m/z. The metabolites hesperetin 7-O-glucuronide, hesperetin 3′-O-glucuronide, hesperetin 3-O-sulfate, naringenin 4′-O-glucuronide, and naringenin 7′-O-glucuronide were quantified with their corresponding standards. […] The parent phenolic compounds were quantified with their corresponding standards. In the case of some relevant conjugated metabolites, which standards were not available (eriodictyol and homoeriodictyol conjugates), their quantification was achieved by using relative response factors (RRFs) as previously described. Briefly, RRFs are useful to check the different responses of metabolites in the mass spectrometer vs. their UV signal. While the ionization response of free vs. conjugated forms is usually very different, their UV signal response is quite similar. To this purpose, we injected in a HPLC-DAD-ESI-Q (MS) the plasma samples (n = 5) with the highest concentrations of those conjugated metabolites. Concentrations were calculated by integrating the area from their corresponding UV peaks and compared with the UV peak area of a known concentration of their corresponding available parent compounds (eriodictyol and homoeriodictyol). The concentrations calculated were used to compare the MS response for each conjugated-aglycone pair.

Data set [2] is described as follows: Plasma metabolites and pharmacokinetics after single intake of lemon or orange extract (UPLC-ESI-QTOF-MS, non-compartmental analysis). Type of data set: in vivo, human. The settings on record: for Occurrence Plasma LE (number of volunteers in whom the metabolite was detected): after consuming lemon extract; for Occurrence Plasma LE (number of volunteers in whom the metabolite was detected) / Occurrence Plasma OE (number of volunteers in whom the metabolite was detected): n = 16 volunteers; for Occurrence Plasma OE (number of volunteers in whom the metabolite was detected): after consuming orange extract; for Tmax / Cmax / AUC(0-t): mean ± SD; for AUC(0-t): read-out: AUC0-t. From the text:
Secondary endpoints involved the evaluation of post-prandial changes in several biomarkers dealing with metabolism, inflammation, and oxidative stress after a high-fat-high-sugars meal. The design was a randomized pharmacokinetic, double-blind, crossover, single-dose trial consisted of 2 test-phases. The volunteers were randomly allocated into two groups using a computerized random number list. Each group consumed one of the citrus extracts by following a test-phase that lasted for 1 day for blood sampling and urine collection, a 2-week washout period between each test phase, and crossover before consuming the other extract. The volunteers were instructed to avoid the consumption of flavanone-containing products, from a list provided by the researchers, for 1 week before the study and during the wash-out phase (citrus fruit juices, tomatoes, tomato-based sauces (like ‘ketchup’), peppers, almonds, etc.). […] The 3 capsules provided a total of 1.95 g orange extract, containing 260 mg hesperidin, and 3.1 g lemon extract, containing 260 mg eriocitrin. […] Plasma samples were obtained by centrifugation of peripheral venous blood at 14,000× g for 15 min at 4 °C and immediately frozen at −80 °C. Glucose, total cholesterol, HDL-cholesterol, LDL-cholesterol, triglycerides, insulin, homeostatic model assessment insulin resistance (HOMA-IR), gamma-glutamyl transferase (GGT), and alanine aminotransferase (ALT) were determined as previously reported. […] A previously validated method for analyzing phenolic metabolites in biological samples, including flavanone-derived metabolites, was used. […] After centrifugation at 14,000× g for 10 min at 4 °C, the supernatant was evaporated in a speed vacuum concentrator. Finally, samples were re-suspended in 100 µL of methanol, filtered through a 0.22 µm cellulose filters before analysis by UPLC- ESI-QTOF-MS. A targeted screening strategy was applied to identify metabolites that could be present after consuming the citrus extracts. Twenty-eight possible compounds were browsed in all the samples. The list of compounds included the polyphenols present in the extracts, with particular focus on the flavanone rutinosides hesperidin and eriocitrin, their respective aglycones hesperetin, and eriodictyol, as well as their derived phase-II conjugates (glucuronides, sulfates, sulfoglucuronides, etc.). The exact mass of each proposed compound was extracted using an extraction window of 0.01 m/z. The metabolites hesperetin 7-O-glucuronide, hesperetin 3′-O-glucuronide, hesperetin 3-O-sulfate, naringenin 4′-O-glucuronide, and naringenin 7′-O-glucuronide were quantified with their corresponding standards. […] The parent phenolic compounds were quantified with their corresponding standards. In the case of some relevant conjugated metabolites, which standards were not available (eriodictyol and homoeriodictyol conjugates), their quantification was achieved by using relative response factors (RRFs) as previously described. Briefly, RRFs are useful to check the different responses of metabolites in the mass spectrometer vs. their UV signal. While the ionization response of free vs. conjugated forms is usually very different, their UV signal response is quite similar. To this purpose, we injected in a HPLC-DAD-ESI-Q (MS) the plasma samples (n = 5) with the highest concentrations of those conjugated metabolites. Concentrations were calculated by integrating the area from their corresponding UV peaks and compared with the UV peak area of a known concentration of their corresponding available parent compounds (eriodictyol and homoeriodictyol). The concentrations calculated were used to compare the MS response for each conjugated-aglycone pair. Statistical analyses were carried out using the SPSS Software, version 23.0 (SPSS Inc., Chicago, IL, USA). Data are expressed as mean ± SD. The empirical distribution of data with the normality assumption was tested with the Shapiro-Wilk test. […]

The mark [3] stands for this setting: lemon extract (3.1 g, 260 mg eriocitrin).
Setting [4] is: orange extract (1.95 g, 260 mg hesperidin).
Setting [5] is: after orange (hesperidin) extract.
Setting [6] is: human, oral, 1.95 g, after orange (hesperidin) extract.
The mark [7] stands for this setting: human, oral, 1.95 g, after orange (hesperidin) extract, read-out: Tmax.
Setting [8] is: human, oral, 3.1 g, after lemon extract.
[9] abbreviates: human, oral, 3.1 g, after lemon extract, read-out: Tmax.

`O=C1CC(c2ccc(OC3OC(C(=O)O)C(O)C(O)C3O)cc2)Oc2cc(O)cc(O)c21` (centres unmarked) [M5, Naringenin 4′-O-glucuronide]: the “Urinary excretion F1” value in data set [1] (setting [3]) was found to be 0.8 ± 0.5 µg/mg creatinine; in data set [1] (setting [4]) it was 0.1 ± 0.1 µg/mg creatinine. Besides, the “Urinary excretion Total F” value in data set [1] (lemon extract) is 4.2 ± 5.0 µg/mg creatinine; in data set [1] (orange extract), 1.0 ± 1.5 µg/mg creatinine. In addition, the “Urinary excretion F2” value in data set [1] (lemon extract) came to 1.7 ± 2.7 µg/mg creatinine; in data set [1] (orange extract), 0.3 ± 0.5 µg/mg creatinine. In addition, the “Urinary excretion F3” value in data set [1] (lemon extract) was 1.3 ± 1.5 µg/mg creatinine; in data set [1] (orange extract), 0.3 ± 0.4 µg/mg creatinine. Further, the entries for the “Urinary excretion F4” value in data set [1] (lemon extract) and in data set [1] (orange extract) were 0.4 ± 0.3 µg/mg creatinine and 0.3 ± 0.5 µg/mg creatinine, respectively. Besides, the “Occurrence Urine LE (number of volunteers in whom the metabolite was detected)” value (“Occurrence Urine LE” below) in data set [1] was determined as 16. Also, in data set [1], the “Occurrence Urine OE (number of volunteers in whom the metabolite was detected)” value (“Occurrence Urine OE” for short) was determined as 16. For the same compound, the “Occurrence Plasma LE (number of volunteers in whom the metabolite was detected)” value (from here on “Occurrence Plasma LE”) in data set [2] is reported as 16. The “Occurrence Plasma OE (number of volunteers in whom the metabolite was detected)” value (shortened to “Occurrence Plasma OE”) in data set [2] is listed as 14. Further, the Tmax is 5.7 ± 2.3 h in data set [2] (after lemon extract), 7.7 ± 2.0 h in data set [2] (setting [5]), 7.5 h in data set [2] (setting [7]) and 5.5 h in data set [2] (setting [9]). Also, the Cmax worked out at 7.3 ± 5.9 nM in data set [2] (setting [6]) and 35.8 ± 25.9 nM in data set [2] (setting [8]). Besides, the AUC(0-t) was found to be 0.0267 ± 0.0277 µM·h in data set [2] (setting [6]) and 0.129 ± 0.124 µM·h in data set [2] (setting [8]).
`COc1ccc(C2CC(=O)c3c(O)cc(OC4OC(C(=O)O)C(O)C(O)C4O)cc3O2)cc1O` (centres unmarked) [M7, Hesperetin 7-O-glucuronide]: the “Urinary excretion F1” value in data set [1] (setting [3]) is 1.2 ± 1.4 µg/mg creatinine. For the same compound, in data set [1] (lemon extract), the “Urinary excretion Total F” value worked out at 8.5 ± 9.2 µg/mg creatinine, the “Urinary excretion F2” value came to 4.0 ± 4.7 µg/mg creatinine, the “Urinary excretion F3” value was 2.7 ± 2.5 µg/mg creatinine and the “Urinary excretion F4” value was determined as 0.6 ± 0.6 µg/mg creatinine. In addition, the “Urinary excretion F1” value in data set [1] (setting [4]) is listed as 0.2 ± 0.6 µg/mg creatinine. In data set [1] (orange extract), the “Urinary excretion Total F” value was 5.6 ± 13.2 µg/mg creatinine, the “Urinary excretion F2” value came to 2.1 ± 5.7 µg/mg creatinine, the “Urinary excretion F3” value turned out to be 2.2 ± 3.6 µg/mg creatinine and the “Urinary excretion F4” value came out at 1.1 ± 3.3 µg/mg creatinine. Further, the “Urinary excretion after lemon extract vs. orange extract” value in data set [1] (ratio lemon / orange extract intake) was “around 2 fold”. Also, in data set [1], the “Occurrence Urine LE” value was determined as 16 and the “Occurrence Urine OE” value stood at 16. Further, in data set [2], the “Occurrence Plasma LE” value was found to be 16 and the “Occurrence Plasma OE” value is recorded as 16. Moreover, in data set [2] (after lemon extract), the Tmax turned out to be 6.3 ± 2.0 h. Besides, in data set [2] (setting [5]), the Tmax is on record as 8.3 ± 1.6 h. Also, in data set [2] (setting [6]), the Cmax worked out at 49.6 ± 51.7 nM and the AUC(0-t) was 0.177 ± 0.249 µM·h. Moreover, the Tmax in data set [2] (setting [7]) turned out to be 8.5 h. Further, in data set [2] (setting [8]), the highest concentration (Cmax) came out at 169 ± 109 nM and the AUC(0-t) was 0.703 ± 0.591 µM·h. Further, the Tmax in data set [2] (setting [9]) was 6.5 h.
In the case of `COc1ccc(C2CC(=O)c3c(O)cc(O)cc3O2)cc1OC1OC(C(=O)O)C(O)C(O)C1O` (centres unmarked) [M8, Hesperetin 3′-O-glucuronide], the “Urinary excretion F1” value in data set [1] (setting [3]) is recorded as 2.1 ± 2.3 µg/mg creatinine; in data set [1] (setting [4]), 0.5 ± 1.5 µg/mg creatinine. Also, the “Urinary excretion Total F” value in data set [1] (lemon extract) turned out to be 24.2 ± 23.7 µg/mg creatinine; in data set [1] (orange extract), 9.9 ± 18.9 µg/mg creatinine. Further, the “Urinary excretion F2” value in data set [1] (lemon extract) was determined as 10.7 ± 11.3 µg/mg creatinine; in data set [1] (orange extract) it was 4.3 ± 11.5 µg/mg creatinine. The “Urinary excretion F3” value in data set [1] (lemon extract) was 9.2 ± 7.7 µg/mg creatinine; in data set [1] (orange extract), 3.3 ± 4.2 µg/mg creatinine. Moreover, the results for the “Urinary excretion F4” value in data set [1] (lemon extract) and in data set [1] (orange extract) were 2.2 ± 2.4 µg/mg creatinine and 1.8 ± 1.6 µg/mg creatinine, respectively. The “Occurrence Urine LE” value in data set [1] is reported as 16. The “Occurrence Urine OE” value in data set [1] stood at 16. Moreover, the “Occurrence Plasma LE” value in data set [2] is listed as 16. Also, the “Occurrence Plasma OE” value in data set [2] is reported as 16. Besides, the Tmax in data set [2] (after lemon extract) amounted to 6.4 ± 2.0 h; in data set [2] (setting [5]), 8.4 ± 1.6 h; in data set [2] (setting [7]) it was 8.5 h; in data set [2] (setting [9]) it was 6.5 h. Also, the values for the Cmax in data set [2] (setting [6]) and in data set [2] (setting [8]) were 107 ± 128 nM and 198 ± 104 nM, respectively. In addition, the AUC(0-t) came out at 0.409 ± 0.643 µM·h in data set [2] (setting [6]) and 0.803 ± 0.569 µM·h in data set [2] (setting [8]).
Turning to `O=C1C[C@@H](c2ccc(O)c(O)c2)Oc2cc(O)cc(O)c21` [M12, Eriodictyol], in data set [1], the “Occurrence Urine LE” value was found to be 14 and the “Occurrence Urine OE” value came to 4. In data set [2], the “Occurrence Plasma LE” value turned out to be 16 and the “Occurrence Plasma OE” value is given as 0.

The term Tmax denotes the time from dosing to the highest level. What is called Cmax is the maximum level reached in the sampled fluid or tissue.
